# According to patent publication US20060183105A1, “Human brain-derived tissue-specific potassium channel” (priority 1997, published 2006):
# Assays:
# [1] = target: T1, human brain-derived potassium channel subunit SEQ ID NO:3 (hKvQT2) (Homo sapiens, UniProt O43526, N780T); assay: cell-based
# T1 construct: EGFP (Enhanced Green Fluorescent Protein), from pEGFPC1; expressed in transfected cells; host or cells: COS-7 and HEK 293 cells, transient transfection
# Experimental: transfection: HEK293 cells (ATCC, Rockville, Md.) were transfected as follows: 70 ul LipoTAXI (Stratagene, La Jolla, Calif.) was added to a polystyrene tube and gently mixed. Two (2) ug pEFGPC1 (control vector used to trace the transfected cells) and 5 ug of one of the constructs (SEQ ID NO:2 in pcDNA3 or SEQ ID NO:4 in pcDNA3) was added to the lipid/media mixture and incubated for 20 minutes. Two (2)mls of OPTI-MEM I was then added and mixed gently. Cells to be transfected were washed once with OPTI-MEM I, and the 3 ml of lipid-DNA mixture were added to the washed cells and incubated at 37° C. 5% CO2 for 4-6 hours. Cells were then refed with 10% Heat Inactivated FBS (Biowhittaker, Walkersville, Md.) DMEM (Mediatech 10-017-CV). For co-expression experiments, 2 ug pEGFPC1(control vector), 5 ug of pcDNA3QT2L ((SEQ ID NO:2 in pcDNA3) and 20 ug pcDNA3QT2S (SEQ ID NO:4 in pcDNA3) were used in this protocol. Cells were diluted and replated onto 35 mm dishes 24-48 hours prior to patch clamping.
# COS-7 cells (ATCC, Rockville Md.) were transfected as follows: 25 ul DMRIE-C Reagent (Gibco BRL/Life Technologies, Gaithersburg, Md.) were added to 2 ml of OPTI-MEM I (Gibco BRL/Life Technologies, Gaithersburg, Md.), mixed gently and incubated for 20 minuets. Two (2) ug pEGPPC1QT2L (EGFP fused to the N-terminus of SEQ ID NO:2) and 7.3 ug pcDNA3 or 9.3 ug pcDNA3QT2S (SEQ ID NO:4 in pcDNA3) (for a 5 molar excess over hKvQT2L (SEQ ID NO:2) construct) were added to lipid/media mixture, mixed gently and incubated for 20 minutes. Two (2) mls of OPTI-MEM I was then added to this and mixed gently. Cells to be transfected were washed once with OPTI-MEM I, and the 4 ml of lipid-DNA mixture were added to the washed cells and incubated at 37° C. 5% CO2 for 4-6 hours. Cells were then refed with 10% Heat Inactivated FBS (Biowhittaker, Walkersville, Md.) DMEM (Mediatech 10-017-CV). Cells were trypsinized, diluted and replated onto 35 mm dishes 24-48 hours prior to patch clamping.
# electrophysiology: All recordings were obtained using the conventional whole cell configuration (Hammill, O. P., et al., Pfluger Arch., 391, 85-100, 1981). Cells were transfected with 5 ug pcDNA3 or 2 ug pEGFPQT2L (EGFP fused to the N-terminus of SEQ ID NO:2) 24-48 hours prior to experiments. Extracellular solution was (mM): 160 NaCl, 4.5 KCl, 1 MgC2, 2 CaCl2, 5 HEPES, 5 glucose (pH: 7.4 by NaOH, ˜325 mOsm). In K+ selectivity experiments, equimolar Na^+ was substituted by K^+. Pipette solution was (mM): 150 K-aspartate, 2 MgCl2, 1 CaCl2, 5 HEPES, 1.6 EGTA (pH: 7.2 by KOH, ˜305 mOsm). Voltage protocols were implemented and data acquired using pClamp 6.0 software (Axon Instr., CA). Solution changes and drug application with a local perfusion system.
# SN56 cells = settings: attenuation of the potassium current; cited from earlier work
# hKQT2 and hKQT3 = hKQT2 and hKQT3 (Homo sapiens, UniProt O43525+O43526); settings: co-expression in oocytes, current mimics native M-currents; cited from earlier work
# [2] = tested on: mouse neocortical neurons; settings: cited from earlier work; for induction of apoptosis on exposure: neurons, exposure to the K+ ionophore or K+-channel opener
# T1 sequence (O43526 1-854 isoform O43526-2 N762T): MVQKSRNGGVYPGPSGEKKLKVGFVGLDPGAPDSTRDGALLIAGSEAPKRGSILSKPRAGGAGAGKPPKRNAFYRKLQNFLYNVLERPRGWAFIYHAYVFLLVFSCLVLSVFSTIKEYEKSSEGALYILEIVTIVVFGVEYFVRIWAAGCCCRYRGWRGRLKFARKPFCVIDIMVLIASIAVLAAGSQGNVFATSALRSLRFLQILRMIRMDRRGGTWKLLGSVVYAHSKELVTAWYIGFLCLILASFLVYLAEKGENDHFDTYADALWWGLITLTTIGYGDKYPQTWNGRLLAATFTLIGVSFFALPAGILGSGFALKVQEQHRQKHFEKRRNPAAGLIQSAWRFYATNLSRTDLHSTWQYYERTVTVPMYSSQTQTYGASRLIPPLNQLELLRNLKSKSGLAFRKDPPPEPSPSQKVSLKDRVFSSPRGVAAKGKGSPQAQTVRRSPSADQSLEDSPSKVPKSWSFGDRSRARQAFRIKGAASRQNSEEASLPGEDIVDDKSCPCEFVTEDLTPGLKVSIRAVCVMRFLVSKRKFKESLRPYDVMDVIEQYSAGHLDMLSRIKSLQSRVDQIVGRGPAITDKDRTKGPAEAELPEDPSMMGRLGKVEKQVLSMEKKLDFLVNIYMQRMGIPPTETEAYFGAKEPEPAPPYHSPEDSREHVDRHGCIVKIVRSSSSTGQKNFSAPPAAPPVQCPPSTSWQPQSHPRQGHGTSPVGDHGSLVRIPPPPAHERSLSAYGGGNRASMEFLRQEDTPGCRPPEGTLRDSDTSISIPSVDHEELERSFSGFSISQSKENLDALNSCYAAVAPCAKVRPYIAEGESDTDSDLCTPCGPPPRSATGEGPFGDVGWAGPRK
# Sequence of hKQT2 and hKQT3 (O43526 whole entry): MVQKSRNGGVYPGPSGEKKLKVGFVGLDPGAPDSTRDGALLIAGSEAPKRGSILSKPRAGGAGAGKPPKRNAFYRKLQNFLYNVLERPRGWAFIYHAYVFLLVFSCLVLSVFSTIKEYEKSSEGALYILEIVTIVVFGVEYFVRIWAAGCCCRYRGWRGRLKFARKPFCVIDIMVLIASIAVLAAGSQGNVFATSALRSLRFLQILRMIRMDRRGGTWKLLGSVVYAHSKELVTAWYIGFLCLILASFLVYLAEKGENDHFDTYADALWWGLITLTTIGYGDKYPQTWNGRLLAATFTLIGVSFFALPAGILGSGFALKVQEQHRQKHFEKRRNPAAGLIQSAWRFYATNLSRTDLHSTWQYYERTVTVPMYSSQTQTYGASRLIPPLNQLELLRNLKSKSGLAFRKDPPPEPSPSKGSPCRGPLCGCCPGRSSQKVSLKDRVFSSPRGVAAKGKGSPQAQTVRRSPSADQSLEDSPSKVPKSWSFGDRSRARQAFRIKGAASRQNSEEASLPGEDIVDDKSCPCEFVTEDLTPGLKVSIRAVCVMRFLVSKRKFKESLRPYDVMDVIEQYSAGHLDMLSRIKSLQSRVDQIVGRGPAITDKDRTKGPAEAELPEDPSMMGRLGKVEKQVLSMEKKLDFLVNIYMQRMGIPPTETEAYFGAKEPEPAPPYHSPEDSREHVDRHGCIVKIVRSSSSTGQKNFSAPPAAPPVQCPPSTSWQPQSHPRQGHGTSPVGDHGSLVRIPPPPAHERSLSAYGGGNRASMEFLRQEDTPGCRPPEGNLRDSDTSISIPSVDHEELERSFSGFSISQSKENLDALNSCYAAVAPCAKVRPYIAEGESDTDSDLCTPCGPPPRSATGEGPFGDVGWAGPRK
# Sequence of hKQT2 and hKQT3 (O43525 whole entry): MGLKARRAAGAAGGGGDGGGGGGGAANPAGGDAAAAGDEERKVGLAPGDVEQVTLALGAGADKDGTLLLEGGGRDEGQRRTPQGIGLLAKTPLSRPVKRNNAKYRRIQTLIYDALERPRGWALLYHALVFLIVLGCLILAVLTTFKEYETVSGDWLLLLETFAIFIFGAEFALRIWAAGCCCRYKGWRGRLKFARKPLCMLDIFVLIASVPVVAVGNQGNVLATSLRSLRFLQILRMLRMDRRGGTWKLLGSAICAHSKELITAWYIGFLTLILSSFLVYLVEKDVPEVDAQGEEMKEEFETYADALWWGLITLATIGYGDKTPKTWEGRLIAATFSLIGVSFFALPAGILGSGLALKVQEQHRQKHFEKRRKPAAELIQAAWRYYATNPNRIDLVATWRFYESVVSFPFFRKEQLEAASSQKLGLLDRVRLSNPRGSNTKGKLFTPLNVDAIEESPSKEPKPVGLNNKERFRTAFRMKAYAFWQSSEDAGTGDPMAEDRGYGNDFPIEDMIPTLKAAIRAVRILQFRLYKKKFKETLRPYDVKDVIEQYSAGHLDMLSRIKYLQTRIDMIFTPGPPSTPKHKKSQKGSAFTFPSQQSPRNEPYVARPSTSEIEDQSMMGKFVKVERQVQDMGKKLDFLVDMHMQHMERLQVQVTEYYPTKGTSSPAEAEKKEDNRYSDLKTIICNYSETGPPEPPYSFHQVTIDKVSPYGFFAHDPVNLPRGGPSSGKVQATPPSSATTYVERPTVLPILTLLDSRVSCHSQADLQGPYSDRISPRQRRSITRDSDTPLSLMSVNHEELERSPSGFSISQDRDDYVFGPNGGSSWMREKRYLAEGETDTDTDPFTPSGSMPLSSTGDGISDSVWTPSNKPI
smiles,measurement,setting,value
[Ba+2].[Cl-].[Cl-] [barium],blocking of hKvQT2 (SEQ ID NO:3) channel,"[1]; channel expressed in mammalian cells, properties match M-current",blocking by barium
"CC[N+](CC)(CC)CC.[Cl-] [TEA, tetraethylammonium chloride]",effect on Aβ-mediated toxicity,SN56 cells,block Aβ-mediated toxicity
same,IC50,[1],130 µM
same,"slope factor of Hill fit, inhibition of SEQ ID NO:3 subunit","[1]; Hill fit to mean data points, FIG. 12D",0.59
same,block of voltage-gated outward currents,"[1]; externally applied, mammalian cells transfected with SEQ ID NO:2, FIG. 12D",blocked potently
same,block of hKQT2/hKQT3 current,hKQT2 and hKQT3,block by TEA
same,effect on apoptosis of mouse neocortical neurons,"[2]; apoptosis induced by serum deprivation or staurosporine, attenuating outward K+ current",reduced apoptosis
CC1(C)Oc2ccc(C#N)cc2C(N2CCCC2=O)C1O (centres unmarked) [cromakalim],induction of neuronal apoptosis,[2]; 24 to 48 hours of exposure,induced typical neuronal apoptosis
same,induction of apoptosis on exposure,[2],induced apoptosis
CC(C)[C@@H]1NC(=O)[C@H](C)OC(=O)[C@@H](C(C)C)NC(=O)[C@@H](C(C)C)OC(=O)[C@H](C(C)C)NC(=O)[C@H](C)OC(=O)[C@@H](C(C)C)NC(=O)[C@@H](C(C)C)OC(=O)[C@H](C(C)C)NC(=O)[C@H](C)OC(=O)[C@@H](C(C)C)NC(=O)[C@@H](C(C)C)OC1=O [valinomycin],induction of neuronal apoptosis in cortical cultures,"[2]; 20 nM, 24 to 48 hours",induced typical neuronal apoptosis
same,induction of apoptosis on exposure,[2],induced apoptosis
